# Measurements as given in the NIST ThermoML archive (doi:10.1021/je0256481).
# ± gives the expanded uncertainty stated by the source.
# Experiment: activity coefficient (dimensionless); of the first substance listed, at infinite dilution; xn = mol fraction of the nth substance listed
# Conditions: Liquid, x1 = 0
Compound,activity coefficient (298.15 K),activity coefficient (313.15 K),activity coefficient (323.15 K)
C1CCCCC1 [cyclohexane] + CCCCCCn1cc[n+](C)c1.F[P-](F)(F)(F)(F)F,12.7 ± 1.2,10.6 ± 0.97,9.38 ± 0.86
C=CCCCCCC [oct-1-ene] + CCCCCCn1cc[n+](C)c1.F[P-](F)(F)(F)(F)F,21.9 ± 2,19.5 ± 1.8,18 ± 1.7
C1CCCCCCC1 [cyclooctane] + CCCCCCn1cc[n+](C)c1.F[P-](F)(F)(F)(F)F,,18.7 ± 1.7,12.2 ± 1.1
C#CCCCC [1-hexyne] + CCCCCCn1cc[n+](C)c1.F[P-](F)(F)(F)(F)F,,2.78 ± 0.25,2.82 ± 0.26
C=CCCCC [hex-1-ene] + CCCCCCn1cc[n+](C)c1.F[P-](F)(F)(F)(F)F,10.4 ± 0.96,9.09 ± 0.83,7.88 ± 0.72
CCCCCCC [heptane] + CCCCCCn1cc[n+](C)c1.F[P-](F)(F)(F)(F)F,30.6 ± 2.8,25.7 ± 2.4,22.2 ± 2
c1ccccc1 [benzene] + CCCCCCn1cc[n+](C)c1.F[P-](F)(F)(F)(F)F,1.03 ± 0.05,1.04 ± 0.06,1.07 ± 0.06
CCCCC [pentane] + CCCCCCn1cc[n+](C)c1.F[P-](F)(F)(F)(F)F,13.7 ± 2.7,12.2 ± 2.4,8.48 ± 1.4
C#CCCCCC [1-heptyne] + CCCCCCn1cc[n+](C)c1.F[P-](F)(F)(F)(F)F,,4.03 ± 0.37,4.07 ± 0.37
C=CCCCCC [1-heptene] + CCCCCCn1cc[n+](C)c1.F[P-](F)(F)(F)(F)F,15.3 ± 1.4,13.8 ± 1.3,12.4 ± 1.1
CCCCCC [hexane] + CCCCCCn1cc[n+](C)c1.F[P-](F)(F)(F)(F)F,22.5 ± 5.4,19.2 ± 4.4,15 ± 3
C1CCCC1 [cyclopentane] + CCCCCCn1cc[n+](C)c1.F[P-](F)(F)(F)(F)F,8.53 ± 0.78,7.21 ± 0.66,6.08 ± 0.56
CO [methanol] + CCCCCCn1cc[n+](C)c1.F[P-](F)(F)(F)(F)F,1.94 ± 0.17,1.6 ± 0.13,1.44 ± 0.11
C1CCCCCC1 [cycloheptane] + CCCCCCn1cc[n+](C)c1.F[P-](F)(F)(F)(F)F,,14.2 ± 1.3,11.8 ± 1.1
CCCCCCCC [octane] + CCCCCCn1cc[n+](C)c1.F[P-](F)(F)(F)(F)F,44.7 ± 4.2,37.1 ± 3.5,32 ± 3
C#CCCCCCC [1-octyne] + CCCCCCn1cc[n+](C)c1.F[P-](F)(F)(F)(F)F,,5.86 ± 0.54,5.81 ± 0.53
